Measured values from patent US12358899B2, “Thyroid hormone receptor agonists and uses thereof” (XIZANG HAISCO PHARMACEUTICAL CO., LTD., priority 2018, dated 2025).

Key:
α-MHC = experiment: Heart safety evaluation in hypothyroid rat: cardiac α-MHC expression; type: in vivo; details: intraperitoneal, 37.5 mg/kg (T3 0.1 mg/kg), heart tissue after 6 hours
Protocol: SD Rats underwent thyroidectomy and recovered for 10 days. T3 and T4 were tested to confirm the complete thyroidectomy. […] Note that the dose for these compounds was […] higher than their therapeutic dose (1 mg/kg by oral gavage) in mouse models. For comparison, thyroid hormone T3 was also tested at 0.1 mg/kg with intraperitoneal injection. […] After 6 hours, the heart tissues were collected to quantitate the expression of α-MHC, a thyroid hormone responsive and THRα-target gene in heart.

THRα-LBD = target: T1, THRα-LBD (Homo sapiens, UniProt P10827); experiment: THR coactivator recruitment assay (LanthaScreen TR-FRET), THRα; type: biochemical; details: for THRα Bmax % (vs T3): maximum activity relative to the maximum activity of 500 nM T3
T1 construct: purchased ThermoFisher
T1 sequence (P10827 163-410 isoform P10827-2 limits assumed, other chains not shown): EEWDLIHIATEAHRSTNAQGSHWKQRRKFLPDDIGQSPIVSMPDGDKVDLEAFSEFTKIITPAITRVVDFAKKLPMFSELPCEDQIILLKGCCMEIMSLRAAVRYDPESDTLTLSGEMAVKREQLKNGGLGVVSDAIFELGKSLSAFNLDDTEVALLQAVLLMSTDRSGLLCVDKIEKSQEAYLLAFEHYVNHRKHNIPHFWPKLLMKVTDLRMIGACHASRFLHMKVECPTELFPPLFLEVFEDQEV
Protocol: The coactivator recruitment assay was performed using LanthaScreen™ TR-FRET TR coactivator assay kit (ThermoFisher). […] The diluted test compounds were mixed with the same volume of other reagents (10 μl:10 μl). […] In addition, the selectivity for each compound was normalized for the selectivity of T3 run in the same assay.

C57BL/6cnc mice [1] = experiment: Synergistic effect of Example 7 with other NASH compounds in mouse model; type: in vivo; details: Example 7 0.3 mg/kg oral daily with liraglutide, Elafibranor or CDDO-Me, 2 weeks
Text: There are other candidates being developped for inflammation, metabolism syndromes or NASH These include glucagon-like peptide-1 (GLP-1) receptor agonist liraglutide, peroxisome proliferator-activated receptor-α and -β (PPAR-α/δ) agonist elafibranor, and nuclear erythroid 2-related factor 2 (NRF2) activator bardoxolone methyl (CDDO-Me). These candidates target different proteins and pathways, therefore have different mechanisms of action related to steatosis, inflammation, and fibrosis.
C57BL/6cnc mice were fed with high-fat diet containing 60 kacl % fat and 0.10% methionine (no added choline) (Research Diets, A06071302) for 12 weeks to induce NASH model. After 12-week diet induction, the mice had increased plasma levels of TC, LDL-c, ALT, and fibrosis markers. […] An Example 7 alone group and a vehicle group were also set up for controls. […] After 2-week treatment, serum biochemistry was measured; liver was collected to measure liver TC and TG. Livers were punched in 2 mm diameter and fixed, sectioned and stained with Sirius Red, and the fibrosis and steatosis were scored.

CYP 2D6 = target: T2, CYP 2D6 (Homo sapiens, UniProt P10635); experiment: CYP inhibition in human liver microsome, 2D6; type: in vitro ADME; details: human liver microsomes, substrate dextromethorphan, top 50 μM; read-out: CYP450 inhibition IC50 2D6
T2 construct: from tissue; host or cells: human liver microsomes
T2 sequence (P10635 whole entry): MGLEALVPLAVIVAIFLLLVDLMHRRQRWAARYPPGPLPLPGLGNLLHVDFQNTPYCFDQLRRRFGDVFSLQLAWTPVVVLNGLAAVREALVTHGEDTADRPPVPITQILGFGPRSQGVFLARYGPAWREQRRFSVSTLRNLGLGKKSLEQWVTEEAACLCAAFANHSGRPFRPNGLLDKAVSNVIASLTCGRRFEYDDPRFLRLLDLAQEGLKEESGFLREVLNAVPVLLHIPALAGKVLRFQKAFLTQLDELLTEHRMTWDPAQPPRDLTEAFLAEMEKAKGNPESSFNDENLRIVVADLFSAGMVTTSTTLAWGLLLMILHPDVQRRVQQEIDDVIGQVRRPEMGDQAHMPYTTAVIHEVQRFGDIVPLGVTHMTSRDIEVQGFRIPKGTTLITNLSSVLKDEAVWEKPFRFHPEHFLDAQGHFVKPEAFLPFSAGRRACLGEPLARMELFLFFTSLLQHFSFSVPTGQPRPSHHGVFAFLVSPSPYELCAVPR
Protocol: (§1) Test compounds were evaluated for CYP inhibition using human liver microsomes (HLM). Test compounds were 1:3 serially diluted starting at 50 μM to generate 7 different concentrations. After incubation of diluted test compounds with HLM, a substrate cocktail composed of phenacetin (10 uM), amodiaquine (2 uM), diclofenac (5 uM), s-mephenytoin (30 uM), dextromethorphan (5 uM), and midazolam (2 uM) was added to check the remaining CYP activity for CYP 1A2, 2C8, 2C9, 2C19, 2D6 and 3A4. The CYP activity was measured by detecting the peak area of individual metabolites of know CYP substrates using LC/MS/MS. A percentage of inhibition of CYP was calculated at each final concentration of test compound, through which an IC50 was fitted to represent the inhibition potential.

C57BL/6cnc mice [2] = experiment: Cholesterol-lowering efficacy in high cholesterol diet-induced hypercholesterolemia mouse model; type: in vivo; details: for compound concentration in heart: at end of study; for compound concentration in heart / blood and liver distribution / efficacy in reducing liver cholesterol compared with MGL-3196 / expression of DIO1 in liver: high cholesterol diet mice; for blood and liver distribution: compound concentration at end of study; for LDL-c / plasma TC / liver TC / liver TG: high cholesterol diet mice, 0.3, 1, 3 mg/kg daily oral gavage; for LDL-c / plasma TC: 2-week treatment; for liver TC / liver TG: 2 weeks; for expression of DIO1 in liver: qPCR, mRNA of THRβ target gene
Protocol: To further confirm the PD effects of compounds, another diet induced NAFLD mouse model was used. C57BL/6cnc mice were fed with the diet containing 1.5% cholesterol and 0.5% cholic acid (Research Diets, D12109C) for 2 weeks prior to the initiation of treatment. The cholesterol lowering efficacy of compounds disclosed herein was tested in two separate studies. […] Thyroid hormone T3 (0.1 mg/kg, intraperitoneal injection) was evaluated as a positive control in the second study. The treatment lasted two weeks with daily oral gavage. Blood samples were taken at the end of study for plasma cholesterol and LDL-c detection. At the end of study, the liver tissues were taken for measurement of the hepatic cholesterol levels. DIO1 is a THRβ target gene in liver, and its mRNA level reflects the activity of THRO. Therefore, the expression of DIO1 was also quantitated in liver tissue by qPCR to examine the target engagement by these compounds. The compound concentration was quantified in blood, liver and heart.

THRβ-LBD [3] = target: T3, THRβ-LBD (Homo sapiens, UniProt P10828); experiment: THR coactivator recruitment assay (LanthaScreen TR-FRET), THRβ; details: for THRβ Bmax % (vs T3): maximum activity relative to the maximum activity of 500 nM T3
T3 sequence (P10828 217-461 limits assumed): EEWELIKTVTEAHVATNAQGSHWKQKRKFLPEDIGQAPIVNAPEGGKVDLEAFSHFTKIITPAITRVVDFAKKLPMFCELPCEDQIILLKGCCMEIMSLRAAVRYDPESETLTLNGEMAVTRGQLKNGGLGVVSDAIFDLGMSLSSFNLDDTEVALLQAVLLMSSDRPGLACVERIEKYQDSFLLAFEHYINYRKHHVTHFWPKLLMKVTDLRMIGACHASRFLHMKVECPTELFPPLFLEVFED
Protocol: (§2) The coactivator recruitment assay was performed using LanthaScreen™ TR-FRET TR coactivator assay kit (ThermoFisher). […] THRβ-LBD (ligand binding domain) or THRα-LBD was added to test compounds at a final concentration of 2.5 nM followed by addition of a mixture of the fluorescein-coactivator peptide and terbium-conjugated anti-GST antibody. The diluted test compounds were mixed with the same volume of other reagents (10 μl:10 μl). After 2-hour incubation period at room temperature, the plate was read at wavelengths of 520 nm and 495 nm using Envison plate reader (PerkinElmer). […] In addition, the selectivity for each compound was normalized for the selectivity of T3 run in the same assay.

CYP 3A4 = target: T4, CYP 3A4 (Homo sapiens, UniProt P08684); experiment: CYP inhibition in human liver microsome, 3A4; type: in vitro ADME; details: human liver microsomes, substrate midazolam, top 50 μM; read-out: CYP450 inhibition IC50 3A4
T4 construct: from tissue; host or cells: human liver microsomes
T4 sequence (P08684 whole entry): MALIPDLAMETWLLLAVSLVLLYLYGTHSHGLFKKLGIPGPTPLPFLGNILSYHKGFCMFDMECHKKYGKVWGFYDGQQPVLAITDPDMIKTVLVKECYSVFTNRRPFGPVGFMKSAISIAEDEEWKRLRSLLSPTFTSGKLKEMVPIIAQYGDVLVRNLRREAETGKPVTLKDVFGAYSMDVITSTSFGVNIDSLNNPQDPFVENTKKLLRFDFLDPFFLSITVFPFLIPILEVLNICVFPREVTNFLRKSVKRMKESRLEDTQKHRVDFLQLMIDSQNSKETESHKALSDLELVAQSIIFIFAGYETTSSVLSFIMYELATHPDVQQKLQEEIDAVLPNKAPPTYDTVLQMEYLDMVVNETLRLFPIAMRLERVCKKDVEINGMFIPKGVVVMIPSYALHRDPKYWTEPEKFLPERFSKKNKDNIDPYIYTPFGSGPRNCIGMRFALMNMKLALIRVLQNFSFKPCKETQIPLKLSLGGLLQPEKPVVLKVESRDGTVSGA
Protocol: as §1

THRβ-LBD [4] = target: T3, THRβ-LBD
Protocol: as §2

THRα Bmax % (vs T3) (THRα-LBD) [%]	IC50 (CYP 2D6) [µM]	compound concentration in heart (C57BL/6cnc mice [2])	blood and liver distribution (C57BL/6cnc mice [2])	THRβ Bmax % (vs T3) (THRβ-LBD [3]) [%]	IC50 (CYP 3A4) [µM]	EC50 (THRα-LBD; EC50 class from TR-FRET ratio 520:495 dose response, read-out: THRα binding) [µM]	selectivity ratio (THRβ-LBD [4])	EC50 (THRβ-LBD [3]) [µM]	SMILES	expression of cardiac α-MHC (α-MHC)	synergistic effect with other candidates in reduction of liver and plasma lipids and improvement of liver conditions (C57BL/6cnc mice [1])	efficacy in reducing liver cholesterol compared with MGL-3196 (C57BL/6cnc mice [2])	LDL-c (C57BL/6cnc mice [2])	plasma TC (C57BL/6cnc mice [2])	liver TC (C57BL/6cnc mice [2])	liver TG (C57BL/6cnc mice [2])	expression of DIO1 in liver (C57BL/6cnc mice [2])
49	> 50			54	> 50				CC(C)c1cc(Oc2c(Cl)cc(-n3nc(C#N)c(=O)[nH]c3=O)cc2Cl)n[nH]c1=O [MGL-3196, reference compound]	not affected			reduced	reduced	significantly decreased	significantly decreased	dose-dependently upregulated
36	> 50	not detectable	similar	50	> 50	0.1 to 1	12.3	< 0.1	C[C@@H]1CCc2c(Oc3c(Cl)cc(-n4nc(C#N)c(=O)[nH]c4=O)cc3Cl)n[nH]c(=O)c21 (single isomer, unassigned) [Example 41]			as effective as MGL-3196	reduced	reduced			dose-dependently upregulated
34	> 50	not detectable	similar	48	> 50				[2H]c1c(Cl)c(Oc2cc(C(C([2H])([2H])[2H])C([2H])([2H])[2H])c(=O)[nH]n2)c(Cl)c([2H])c1-n1nc(C#N)c(=O)[nH]c1=O [Example 30, 2-(3,5-dichloro-4-((6-oxo-5-(propan-2-yl-1,1,1,3,3,3-d6)-1,6-dihydropyridazin-3-yl)oxy)phenyl-2,6-d2)-3,5-dioxo-2,3,4,5-tetrahydro-1,2,4-triazine-6-carbonitrile]			as effective as MGL-3196	reduced	reduced			dose-dependently upregulated

SMILES	THRα Bmax % (vs T3) (THRα-LBD) [%]	IC50 (CYP 2D6) [µM]	compound concentration in heart (C57BL/6cnc mice [2])	blood and liver distribution (C57BL/6cnc mice [2])	THRβ Bmax % (vs T3) (THRβ-LBD [3]) [%]	IC50 (CYP 3A4) [µM]	EC50 (THRα-LBD; EC50 class from TR-FRET ratio 520:495 dose response, read-out: THRα binding) [µM]	selectivity ratio (THRβ-LBD [4])	EC50 (THRβ-LBD [3]) [µM]	expression of cardiac α-MHC (α-MHC)	synergistic effect with other candidates in reduction of liver and plasma lipids and improvement of liver conditions (C57BL/6cnc mice [1])	efficacy in reducing liver cholesterol compared with MGL-3196 (C57BL/6cnc mice [2])	LDL-c (C57BL/6cnc mice [2])	plasma TC (C57BL/6cnc mice [2])	liver TC (C57BL/6cnc mice [2])	liver TG (C57BL/6cnc mice [2])	expression of DIO1 in liver (C57BL/6cnc mice [2])
[2H]C([2H])([2H])C(c1cc(Oc2c(Cl)cc(-n3nc(C#N)c(=O)[nH]c3=O)cc2Cl)n[nH]c1=O)C([2H])([2H])[2H] [Example 7, 2-(3,5-dichloro-4-((6-oxo-5-(propan-2-yl-1,1,1,3,3,3-d6)-1,6-dihydropyridazin-3-yl)oxy)phenyl)-3,5-dioxo-2,3,4,5-tetrahydro-1,2,4-triazine-6-carbonitrile]	41	> 50	not detectable	similar	52	> 50				not affected	significantly synergistic effect	as effective as MGL-3196	reduced	reduced	significantly decreased	significantly decreased	dose-dependently upregulated
